The numbers were not newly measured in US20250288540A1, “METHODS AND COMPOSITIONS FOR PAIN MANAGEMENT” (SILO PHARMA, INC., priority 2024, published 2025), which cites them from elsewhere.

Series [1] has as its system halothane requirements (MAC). The following applies: rat.
Series [2] concerns N-methyl-D-aspartate (NMDA) receptor.

Take `CNC1(c2ccccc2Cl)CCCCC1=O.Cl` (centres unmarked) [Ketamine hydrochloride, 2-(2-chlorophenyl)-2-(methylamino) cyclohexan-1-one hydrochloride]: the solubility in ethanol (ethanol) is listed as approximately 750 mg/mL. In addition, the solubility in ether result (ether) is reported as “practically insoluble”. Where the note is “methanol”, the solubility in methanol result was “freely soluble”.

On to `NC1(c2ccccc2Cl)CCCCC1=O` (centres unmarked) [Norketamine], for which the “activity relative to ketamine in reducing halothane requirements (MAC)” value in series [1] is “about ⅓”. Also, the “affinity at the NMDA receptor compared with ketamine” value in series [2] is listed as “less affinity”.
